From US20070105810A1, “THERAPEUTICS” (priority 2003, published 2007)
Entries after “also recorded” stand apart in the source; their conditions may differ.

Experiments:
[1] = test system: IP3-induced Ca2+ signal in Jurkat T cells; assay: Ca2+ signalling evoked by microinjection of IP3 in Jurkat T cells; format: cell-based, human; settings: co-injection of BZ52 1 mM with IP3 4 μM
Experimental: NAADP (final concentration 100 nM), IP3 (final concentration 4 μM), and BZ52 (final concentration 1 mM) were injected into single Jurkat T cells while [Ca^2+]i was analyzed by Ca^2+ imaging. Data are presented as mean±SEM (n=4 to 13).
The Jurkat T cells were loaded with fura-2/AM and kept in the dark at room temperature until use. Glass coverslips were coated first with BSA (5 mg/ml) and subsequently with poly-L-lysine (0.1 mg/ml). Small chamber slides consisting of a rubber O-ring were sealed on thin (0.1 mm) glass coverslips by silicon grease. Then, 60 μl buffer A containing 140 mM NaCl, 5 mM KCl, 1 mM MgSO4, 1 mM CaCl2, 1 mM NaH2PO4, 5.5 mM glucose, and 20 mM HEPES (pH 7.4), and 40 μl cell suspension (2*10^6 cells/ml) suspended in the same buffer were added into the small chamber and the coverslip was mounted on the stage of a fluorescence microscope (Leica DM IRE2).
Ratiometric Ca^2+ imaging was performed as described earlier. In brief, we used an Improvision imaging system (Heidelberg, Germany) built around the Leica microscope at 100-fold magnification. Illumination at 340 and 380 nm was carried out using a monochromator system (Polychromator IV, TILL Photonics, Graefelfing, Germany). Images were taken with a gray-scale CCD camera (type C4742-95-12ER; Hamamatsu, Enfield, United Kingdom; operated in 8-bit mode). […]

[2] = test system: T cell receptor/CD3 complex mediated Ca2+ signalling; assay: T cell receptor/CD3 complex mediated Ca2+ signalling in human T cells; format: cell-based
Experimental: Intact Jurkat T-lymphocytes were loaded with fura2/AM. Ratiometric determination of [Ca^2+]i was carried out in cell suspension in a Hitachi F2000 fluorometer at room temperature at excitation wavelengths of 340 and 380 nm (alternating) and an emission wavelength of 495 nm. Each experiment was calibrated by addition of Triton X100 (10% v/v final concentration) to obtain the maximal ratio and subsequent addition of 4 mM EGTA/40 mM Tris-base to obtain the minimal ratio.
[Ca^2+]i was measured by using the fluorescent indicator Fura2/AM. In brief, 10^7 cells were loaded with Fura2/AM, and fluorescence was determined in batches of 1.5×10^6 cells with an Hitachi F-2000 fluorimeter at excitation and emission wavelengths of 340 and 380 nm (exc.) and 505 nm (em.), respectively. Measurements were carried out at 20° C. At the end of each single measurement maximal and minimal ratios were determined by addition of Triton X-100 and EGTA/Tris.

[3] = Tolerability of intraperitoneal injection in Lewis rats; format: in vivo
Description: Limited solubility of BZ194 excluded intravenous application due to embolic complications.

[4] = Solubility; format: physicochemical; settings: excluded intravenous application
[5] = test system: cytokine production (IL-2, IFNγ, TNFα, IL-2 receptor mRNA); assay: Quantitative PCR of cytokine mRNA in spinal cord and spleen of EAE animals; format: in vivo, rat; settings: spinal cord tissue 4 days after T cell transfer; BZ194 5 d, 500 μmol; relative to β actin and CD3
Experimental: Quantitative PCR of spinal cords and spleens 4 days after T cell transfer of animals treated with vehicle (DMSO) of BZ 194 (5 d, 500 μmol). IFNg A,B and IL-2 C,D mRNAs were measured in relation to housekeeping gene β actin A,C or T cell marker CD3 B,D.
(§1) mRNA was extracted using standard protocols (Sigma-Aldrich) and reversed to cDNA (Invitrogen). Taqman analysis was performed as reported (Flügel et al. 2001, Immunity) using ABI Prim 7700 Sequence Detector “Taqman” (PE Applied Biosystems). The expression of a housekeeping gene (b-actin) was set into relation to the specific mRNA. Data were obtained by independent duplicate measurements.

[6] = test system: rat MBP-specific T cells; assay: Cytokine (IL2 mRNA) expression of in vitro-cultured MBP-specific T cells, quantitative PCR; format: cell-based; settings: IL2 quantitative PCR after 48 h
Experimental: Cells were stimulated in presence of MBP-pulsed irradiated APCs and increasing concentrations of BZ194. After 48 h cells were collected for cytofluorometric cell count A and RNA extraction was performed for quantitative PCR analysis (IL2) B. Effect of BZ194 on pre-activated T cell blasts C. Amplification of MBP-specific T cells which had been incubated before in the presence of DMSO or 0.5 mM or 1 mM BZ194 D.
as §1
BZ194 strongly influenced the function of rat MBP-specific T cells in vitro and in vivo. Proliferation and cytokine expression of the T cells was tested in vitro after incubation with irradiated MBP-pulsed thymic antigen presenting cells (in rats the commonly used APC type, ref. 5). […] Additionally, the expression of cytokine production by the T cells was reduced (FIG. 18B). Importantly, these effects were not due to toxicity of BZ194.

SMILES | IP3-induced Ca2+ signal [1] | TCR/CD3 complex mediated Ca2+ signalling [2] | adverse effect ([3]; higher amounts of BZ194 i.p.) | tolerability (inspection, weight development, immune cell count) ([3]; i.p., solubilized in DMSO, 180 mg/kg, 5 days) | solubility [4] | cytokine (mRNA) production ex vivo [5] | cytokine (mRNA) production in vitro [6]
CCCCN(CCCC)C(=O)C[n+]1cccc(C(=O)O)c1 [BZ52, 3-Carboxy-1-dibutylcarbamoylmethyl-pyridinium] | no difference | – | – | – | – | – | –
CCCCCCCCNC(=O)C[n+]1cccc(C(=O)O)c1.[Br-] [BZ194, 3-Carboxy-1-Octylcarbamoylmethyl-Pyridinium] | – | partially blocked | occasionally induced peritonitis | well tolerated | Limited | suppressed; also recorded: significant reduction | suppressed; also recorded: reduced
